# Assays:
# [1] = tested on: breast cancer cells; conditions: cells incubated with insulin; cited from earlier work
# [2] = tested on: MDA-MB-231 breast cancer cells; conditions: cells incubated with insulin; cited from earlier work
# [3] = Insulin-induced hypoglycemia safety profile (Xi'an, China); type: in vivo, patients
# Source text: Cure Cancer Worldwide in conjunction with several hospitals in China have been treating patients using a combination of insulin induced hypoglycemia in combination with standard chemotherapy treatments, generally given multiple times in a 3 week window but at 10% the standard dose. The safety of these treatments has been evaluated as well as the side effects.
# [4] = tested on: human esophageal and colonic cancer cells; conditions: cited from earlier work
# [5] = tested on: breast cancer cells; conditions: asynchronous population; 37% in controls; cited from earlier work
# [6] = Hypoglycemic glucose clamp in SCID mouse xenograft model; type: in vivo
# Experimental: The glucose clamp technique has been well developed in animals models for the purpose diabetes research. (Ayala, et al., 2011) We have adapted this technique for use in a SCID mouse xenograft model. FIG. 3 gives a schematic of this procedure. Briefly, mice are injected subcutaneously in the hind flank with a standard amount of cancer cells sufficient to cause a tumor to grow. After a few weeks when tumor volume measures around 300-500 mm3, mice undergo jugular vein cannulation. Mice are fasted for 5 hours prior to treatment with chemotherapy drugs. Depending on the pharmacokinetics of the drug, drugs are either given before the start of the glucose clamp or during the clamp procedure to correspond to the maximum effectiveness of the drug during the “hypoglycemia therapeutic window”. Injection pumps containing insulin, glucose and washed erythrocytes from donor mouse blood are connected to a swivel mixer which is in turn connected to the jugular catheters. For the initiation of the hypoglycemic clump, a bolus injection of insulin is given to reduce initial blood glucose levels which typically take around 30 minutes to lower blood glucose. Then a steady state of insulin and glucose is given to maintain blood glucose levels between 30-50 mg/dL for two hours. In practice, blood glucose levels range from 22-51 mg/dl with an average around 34 mg/dL (1.9 mmol/L). […]
# [7] = cited from earlier work
# [8] = tested on: breast cancer cells in culture; conditions: methotrexate with insulin vs methotrexate alone; cited from earlier work
# [9] = tested on: breast cancer; conditions: diabetic women taking metformin; diabetic control 8%, non-diabetic control 16%; cited from earlier work
# [10] = insulin several hours before 5-FU vs 5-FU without insulin
compound,measurement,setting,value
insulin,stimulation of uptake of methotrexate,[1],50%
same,increase in the uptake of elipticine,[2],2 fold
same,Comas,[3]; 950 insulin injections,0 n
same,Deaths,[3]; 950 insulin injections,0 n
same,Time Interval of Hypoglycemia,[3]; 950 insulin injections,5-25 m
same,Hypoglycemia range,"[3]; insulin induced hypoglycemia with chemotherapy at 10% standard dose, initial blood glucose 3.86-7.95 mmol/l, 950 insulin injections",1.0 to 3.4 mmol/L
same,Conclusion,[3]; insulin-induced hypoglycemia safety profile,safe
same,apoptotic cell populations,[4]; [10],higher percentage of apoptotic cell populations
same,inhibition of cell growth,[4]; [10],greater inhibition of cell growth
same,percent of S-phase cells,[4]; treatment of insulin,increase in the percent of S-phase cells
same,S-phase fraction,[5],66%
same,time to lower blood glucose,[6]; bolus injection of insulin at initiation of clamp,around 30 minutes
same,"blood glucose levels, range in practice","[6]; steady state of insulin and glucose for two hours, target 30-50 mg/dL",22 to 51 mg/dL
"O=CC[C@@H](O)[C@H](O)[C@H](O)CO [2DG, 2-deoxyglucose]",ECG effect,"[7]; Raez, et al., 2013",irregular Electrocardiograph (ECG) heart rhythms
same,main failure point in the clinic,[7]; clinical trials,induced hyperglycemia
CN(Cc1cnc2nc(N)nc(N)c2n1)c1ccc(C(=O)N[C@@H](CCC(=O)O)C(=O)O)cc1 [methotrexate],lowering of methotrexate concentration for same percent cell killing,[8],10000 fold
CN(C)C(=N)N=C(N)N [metformin],pathological complete response (pCR) rate,[9],24%
